Measurements taken from PubChem BioAssay (NCI).
“And” between values parts separate entries of the source, which are not always exact repeats. Equal entries are not always repeated.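 A five-concentration, 48-hour dose response in 96-well plates underlies each endpoint, interpolated linearly between surrounding concentrations. The concentration for 50% growth inhibition is given as GI50. The concentration for full growth arrest is given as TGI.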

Experiments:
Experiment in all cases: growth of human tumour cells (NCI), 48 h
M14 melanoma = tested on: M14 melanoma
ACHN renal = tested on: ACHN renal
COLO 205 colon = tested on: COLO 205 colon
CAKI-1 renal = tested on: CAKI-1 renal
HCC-2998 colon = tested on: HCC-2998 colon
SF-295 CNS = tested on: SF-295 CNS
A549 NSCLC = tested on: A549 NSCLC
PC-3 prostate = tested on: PC-3 prostate
SNB-19 CNS = tested on: SNB-19 CNS
TK-10 renal = tested on: TK-10 renal
SK-MEL-5 melanoma = tested on: SK-MEL-5 melanoma
MCF7 breast = tested on: MCF7 breast
UO-31 renal = tested on: UO-31 renal
MALME-3M melanoma = tested on: MALME-3M melanoma
CCRF-CEM leukemia = tested on: CCRF-CEM leukemia
SNB-75 CNS = tested on: SNB-75 CNS
EKVX NSCLC = tested on: EKVX NSCLC
OVCAR-5 ovarian = tested on: OVCAR-5 ovarian
HOP-62 NSCLC = tested on: HOP-62 NSCLC
NCI/ADR-RES ovarian = tested on: NCI/ADR-RES ovarian
NCI-H460 lung = tested on: NCI-H460 lung
SK-MEL-28 melanoma = tested on: SK-MEL-28 melanoma
LOX IMVI melanoma = tested on: LOX IMVI melanoma
IGROV1 ovarian = tested on: IGROV1 ovarian
OVCAR-4 ovarian = tested on: OVCAR-4 ovarian
MDA-MB-435 = tested on: MDA-MB-435
T-47D breast = tested on: T-47D breast
SW-620 colon = tested on: SW-620 colon
KM12 colon = tested on: KM12 colon
SK-MEL-2 melanoma = tested on: SK-MEL-2 melanoma
HS 578T breast = tested on: HS 578T breast
MOLT-4 leukemia = tested on: MOLT-4 leukemia
UACC-257 melanoma = tested on: UACC-257 melanoma
HCT-15 colon = tested on: HCT-15 colon
UACC-62 melanoma = tested on: UACC-62 melanoma
BT-549 breast = tested on: BT-549 breast
RXF 393 renal = tested on: RXF 393 renal
SK-OV-3 ovarian = tested on: SK-OV-3 ovarian
HOP-92 NSCLC = tested on: HOP-92 NSCLC
MDA-MB-231 breast = tested on: MDA-MB-231 breast
OVCAR-8 ovarian = tested on: OVCAR-8 ovarian
SF-268 CNS = tested on: SF-268 CNS
NCI-H522 lung = tested on: NCI-H522 lung
K-562 leukemia = tested on: K-562 leukemia
NCI-H23 lung = tested on: NCI-H23 lung
OVCAR-3 ovarian = tested on: OVCAR-3 ovarian
U251 CNS = tested on: U251 CNS
DU-145 prostate = tested on: DU-145 prostate
SF-539 CNS = tested on: SF-539 CNS
HT29 colon = tested on: HT29 colon
786-0 renal = tested on: 786-0 renal
RPMI-8226 leukemia = tested on: RPMI-8226 leukemia
SR leukemia = tested on: SR leukemia
NCI-H226 lung = tested on: NCI-H226 lung
A498 renal = tested on: A498 renal
SN12C renal = tested on: SN12C renal
HL-60(TB) leukemia = tested on: HL-60(TB) leukemia
HCT-116 colon = tested on: HCT-116 colon

How did the TGI (M14 melanoma) turn out when `COc1cc(-c2coc3c(OC)c(OC4OC(COC5OC(C)C(O)C(O)C5O)C(O)C(O)C4O)c(OC)c(O)c3c2=O)cc(C)c1O` (stereo unspecified) was run?
Its TGI is 33.1 µM.

What about the TGI (ACHN renal) of the same compound?
The TGI was 52.9 µM.

And the TGI (COLO 205 colon)?
Its TGI is 34.9 µM.

And the TGI (CAKI-1 renal)?
The TGI was 38.9 µM.

What about the TGI (HCC-2998 colon) of the same compound?
The TGI was 39.2 µM.

And the TGI (SF-295 CNS)?
Its TGI is 38 µM.

What about the TGI (A549 NSCLC) of the same compound?
The TGI was over 100 µM.

What about the TGI (PC-3 prostate) of the same compound?
Its TGI is 74.1 µM.

And the TGI (SNB-19 CNS)?
The TGI was 30.3 µM.

And the TGI (TK-10 renal)?
The TGI was over 100 µM.

What about the TGI (SK-MEL-5 melanoma) of the same compound?
The TGI was 26.5 µM.

What about the TGI (MCF7 breast) of the same compound?
Its TGI is 47.4 µM.

What about the TGI (UO-31 renal) of the same compound?
Its TGI is 50.5 µM.

What about the TGI (MALME-3M melanoma) of the same compound?
The TGI was 33.9 µM.

What about the TGI (CCRF-CEM leukemia) of the same compound?
Its TGI is over 100 µM.

And the TGI (SNB-75 CNS)?
The TGI was 69.6 µM.

And the TGI (EKVX NSCLC)?
Its TGI is 38 µM.

What about the TGI (OVCAR-5 ovarian) of the same compound?
The TGI was 45.5 µM.

And the TGI (HOP-62 NSCLC)?
Its TGI is 81.9 µM.

And the TGI (NCI/ADR-RES ovarian)?
Its TGI is 52.5 µM.

What about the TGI (NCI-H460 lung) of the same compound?
The TGI was 82.6 µM.

And the TGI (SK-MEL-28 melanoma)?
Its TGI is 34.4 µM.

And the TGI (LOX IMVI melanoma)?
Its TGI is 45.3 µM.

What about the TGI (IGROV1 ovarian) of the same compound?
The TGI was 53.1 µM.

What about the TGI (OVCAR-4 ovarian) of the same compound?
Its TGI is 69.5 µM.

What about the TGI (MDA-MB-435) of the same compound?
Its TGI is 75.2 µM.

What about the TGI (T-47D breast) of the same compound?
The TGI was 61.4 µM.

What about the TGI (SW-620 colon) of the same compound?
Its TGI is 30.9 µM.

What about the TGI (KM12 colon) of the same compound?
Its TGI is 29.3 µM.

And the TGI (SK-MEL-2 melanoma)?
The TGI was 59.9 µM.

And the TGI (HS 578T breast)?
The TGI was 62.1 µM.

What about the TGI (MOLT-4 leukemia) of the same compound?
Its TGI is 19.4 µM.

What about the TGI (UACC-257 melanoma) of the same compound?
Its TGI is 68.2 µM.

What about the TGI (HCT-15 colon) of the same compound?
The TGI was 40.9 µM.

And the TGI (UACC-62 melanoma)?
Its TGI is 34.7 µM.

What about the TGI (BT-549 breast) of the same compound?
The TGI was 45.4 µM.

And the TGI (RXF 393 renal)?
Its TGI is 32.5 µM.

What about the TGI (SK-OV-3 ovarian) of the same compound?
The TGI was 60.3 µM.

What about the TGI (HOP-92 NSCLC) of the same compound?
The TGI was 65 µM.

What about the TGI (MDA-MB-231 breast) of the same compound?
Its TGI is over 100 µM.

And the TGI (OVCAR-8 ovarian)?
The TGI was over 100 µM.

And the TGI (SF-268 CNS)?
Its TGI is 62.2 µM.

What about the TGI (NCI-H522 lung) of the same compound?
Its TGI is 34.7 µM.

And the TGI (K-562 leukemia)?
Its TGI is 34.6 µM.

And the TGI (NCI-H23 lung)?
Its TGI is 32.4 µM.

What about the TGI (OVCAR-3 ovarian) of the same compound?
The TGI was 47.2 µM.

What about the TGI (U251 CNS) of the same compound?
The TGI was 32.9 µM.

And the TGI (DU-145 prostate)?
Its TGI is 52.7 µM.

What about the TGI (SF-539 CNS) of the same compound?
The TGI was 39 µM.

What about the TGI (HT29 colon) of the same compound?
Its TGI is 43.5 µM.

What does the source list for `COc1cc2c3c(n(CCCNCCN4CCOCC4)c(=O)c2cc1OC)-c1cc2c(cc1C3=O)OCO2`?
TGI (ACHN renal): 0.658 µM and 2.62 µM; GI50 (COLO 205 colon): 2.01 µM and 7.31 µM; TGI (COLO 205 colon): 50 µM and 45.8 µM; GI50 (CAKI-1 renal): 2.61 µM; TGI (CAKI-1 renal): 19.4 µM; GI50 (SF-295 CNS): < 0.005 µM and 0.0343 µM; TGI (SF-295 CNS): 2.13 µM and 1.55 µM; GI50 (A549 NSCLC): 0.182 µM and 1.37 µM; TGI (A549 NSCLC): 5.42 µM; GI50 (PC-3 prostate): 1.9 µM and 1.59 µM; TGI (PC-3 prostate): 9.18 µM and 4.91 µM; GI50 (SNB-19 CNS): 2.23 µM and 0.77 µM; TGI (SNB-19 CNS): 50 µM and > 55.2 µM; GI50 (TK-10 renal): 7.2 µM and 7.5 µM; TGI (TK-10 renal): 14.8 µM and 23.5 µM; TGI (SK-MEL-5 melanoma): 7.74 µM and 20.2 µM; GI50 (UO-31 renal): 5.98 µM and 2.19 µM; TGI (UO-31 renal): 15.2 µM and > 100 µM; GI50 (MALME-3M melanoma): 6.5 µM and 8.31 µM; TGI (MALME-3M melanoma): 14.5 µM and 27.3 µM; GI50 (SNB-75 CNS): 13.6 µM and 3.69 µM; TGI (SNB-75 CNS): 50 µM and 9.87 µM; GI50 (786-0 renal): 1.97 µM; TGI (786-0 renal): 5.23 µM; GI50 (EKVX NSCLC): 8.93 µM and 7.24 µM; TGI (EKVX NSCLC): 18.2 µM and 18.6 µM; GI50 (OVCAR-5 ovarian): 0.913 µM and 2.31 µM; TGI (OVCAR-5 ovarian): 1.74 µM and 5.16 µM; GI50 (RPMI-8226 leukemia): 0.122 µM and 0.0199 µM; TGI (RPMI-8226 leukemia): 1.14 µM and 0.681 µM; TGI (HOP-62 NSCLC): 0.79 µM and 1.93 µM; GI50 (NCI/ADR-RES ovarian): 0.11 µM; TGI (NCI/ADR-RES ovarian): 0.69 µM; GI50 (SR leukemia): < 0.005 µM; GI50 (LOX IMVI melanoma): 1.04 µM; TGI (LOX IMVI melanoma): 3.34 µM; GI50 (NCI-H226 lung): 15.1 µM; TGI (NCI-H226 lung): 53.8 µM; GI50 (A498 renal): 4.1 µM and 16 µM; TGI (A498 renal): 11.4 µM and 35.8 µM; GI50 (IGROV1 ovarian): 6.92 µM and 2.12 µM; TGI (IGROV1 ovarian): 23.5 µM and > 100 µM; TGI (OVCAR-4 ovarian): 50 µM and 12.2 µM; GI50 (MDA-MB-435): 1.93 µM and 4.36 µM; TGI (MDA-MB-435): 10.3 µM and 19.2 µM; GI50 (T-47D breast): 2.56 µM and 23.5 µM; TGI (T-47D breast): 50 µM and 70.2 µM; GI50 (SN12C renal): 1.31 µM; TGI (SN12C renal): 6.5 µM; GI50 (SW-620 colon): 0.0762 µM; TGI (SW-620 colon): 1.33 µM; GI50 (KM12 colon): 0.554 µM and 1.48 µM; TGI (KM12 colon): 1.6 µM and 4.69 µM; GI50 (HL-60(TB) leukemia): 0.321 µM and 2.7 µM; GI50 (SK-MEL-2 melanoma): 7.78 µM and 3.92 µM; TGI (SK-MEL-2 melanoma): 14.7 µM and 19.7 µM; GI50 (HS 578T breast): 2.94 µM and 16.9 µM; TGI (HS 578T breast): 13.3 µM and 48 µM; GI50 (MOLT-4 leukemia): < 0.005 µM; TGI (MOLT-4 leukemia): 19.7 µM; GI50 (UACC-257 melanoma): 6.99 µM and 19.2 µM; TGI (UACC-257 melanoma): 14.2 µM and 46.2 µM; GI50 (HCT-15 colon): 0.453 µM and 2.14 µM; GI50 (UACC-62 melanoma): 1.38 µM; TGI (UACC-62 melanoma): 7.58 µM; GI50 (BT-549 breast): 7.64 µM and 7.01 µM; TGI (BT-549 breast): 16.6 µM and 29.5 µM; GI50 (SK-OV-3 ovarian): 4.68 µM and 1.27 µM; GI50 (HCT-116 colon): < 0.005 µM; TGI (HCT-116 colon): 0.0975 µM; GI50 (HOP-92 NSCLC): 5.79 µM and 1.26 µM; TGI (HOP-92 NSCLC): 12.4 µM and 3.92 µM; GI50 (MDA-MB-231 breast): 2.18 µM; TGI (MDA-MB-231 breast): 5.72 µM; GI50 (OVCAR-8 ovarian): 4.37 µM; TGI (OVCAR-8 ovarian): 17.4 µM; TGI (SF-268 CNS): 8.09 µM and > 65.8 µM; GI50 (NCI-H522 lung): 2.15 µM; TGI (NCI-H522 lung): > 100 µM; GI50 (K-562 leukemia): 7.72 µM; TGI (K-562 leukemia): > 67.1 µM; TGI (NCI-H23 lung): 0.529 µM and 3.83 µM; GI50 (OVCAR-3 ovarian): 0.528 µM and 0.6 µM; TGI (OVCAR-3 ovarian): 1.4 µM and 3.27 µM; TGI (U251 CNS): 0.959 µM and 4.55 µM; GI50 (DU-145 prostate): 0.678 µM; TGI (DU-145 prostate): 3.8 µM; GI50 (SF-539 CNS): 1.08 µM; TGI (SF-539 CNS): 3.88 µM; GI50 (HT29 colon): 2.2 µM and 1.78 µM; TGI (HT29 colon): 50 µM and > 100 µM
